Reference: patent US11440932B2, “Surfactant compounds-clips for extraction and stabilization in solution of membrane proteins” (CENTRE NATIONAL DE LA RECHERCHE SCIENTIFIQUE, priority 2017, dated 2022)

Molecular target: T1, BmrA (Bacillus subtilis, UniProt O06967)
T1 construct: His tag; made in house; host or cells: E. coli C41(DE3)
Experiment: ATPase activity of BmrA after addition of detergents
Type: biochemical, bacterial; produced in E. coli C41 DE3
Conditions: at extracting concentrations; relative to protein without compound
Experimental: FIG. 7 depicts the effect of the detergents of the invention on the functionality of BmrA (ATPase activity, %). The membrane fraction enriched in BmrA (˜25%) diluted to 2 g/l has the compounds added to it at the concentrations (mM) indicated (panel A, from top to bottom: 3.7e 10.7 mM, 3.7e 8.6 mM, 3.7e 6.4 mM, 3.7e 4.3 mM, 3.7e 2.2 mM, 3.7e 1.1 mM, 3.7d 4 mM, 3.7d 3 mM, 3.7d 2 mM, 3.7d 1 mM, 3.7d 0.8 mM, 3.7d 0.6 mM, 3.7d 0.05 mM, 3.7d 0.03 mM, 3.7d 0.02 mM, 3.7c 13 mM, 3.7c 10.4 mM, 3.7c 10 mM, 3.7b 1.5 mM, 3.7b 0.7 mM, 3.7b 0.5 mM, 2.3gNa2 20.5 mM, 2.3gK2 19.3 mM, 2.3f 21.1 mM, 2.3e 22 mM, 2.3d 23.2 mM, 2.3a 3.2 mM, 1.5a 22 mM, DDM 20 mM, DDM 2 mM, DDM 10 mM, DOM 2 mM, DDM 1 mM, LMNG 10 mM, LMNG 1 mM, LMNG 0.1 mM, LMNG 0.01 mM, FA3 27 mM, FA3 9 mM, FA3 2 mM, FA3 1 mM, TX100 16 mM; panel B from top to bottom: compounds of the invention 5.3d 3.2 mM, 5.3c 3.3 mM, 5.3b 11.7 mM, 5.3b 2.9 mM, 5.3a 3 mM, 4.6c 14.6 mM, 4.6b 15.2 mM, 4.5c 18.6 mM, 4.5b 19.6 mM, 3.9a 8 mM, 3.9a 0.51 mM, 3.9a 0.31 mM, 3.9a 0.11 mM, 3.7l 12.01 mM, 3.7l 6.01 mM, 3.7l 3 mM, 3.7l 1 mM, 3.7k 10 mM, 3.7k 3 mM, 3.7j 3 mM, 3.7j 2 mM, 3.7j 1 mM, 3.7j 0.6 mM, 3.7j 0.03 mM, 3.7j 0.02 mM, 3.7j 1 mM, 3.7i 0.3 mM, 3.7h 3 mM, 3.7h 2 mM, 3.7h 1 mM, 3.7h 0.6 mM, 3.7h 0.58 mM, 3.7h 0.5 mM, 3.7h 0.35 mM, 3.7h 0.1 mM, 3.7h 0.5 mM, 3.7h 0.35 mM, 3.7h 0.1 mM, 3.7h 0.05 mM, 3.7h 0.03 mM, 3.7h 0.02 mM, 3.7g 12.5 mM, 3.7g 9 mM, 3.7g 7.5 mM, 3.7g 5 mM, 3.7g 3 mM, 3.7g 1 mM, 3.7f 3.2 mM, 3.7f 2 mM, 3.7f 1 mM, 3.7f 0.061 mM, 3.7f 0.031 mM, 3.7f 0.015 mM). After incubation for 2 h at 4° C., the ATPase activity is measured. The solutions are subsequently centrifuged for 1 h at 4° C., 100 000×g, and the supernatants deposited on 10% SDS-PAGE (cf. FIG. 8). The gray and black histograms correspond to the concentrations at which BmrA is partially (gray) or entirely (black) extracted, according to these SDS-PAGE. The ATPase activity is in % relative to that of the protein without compound, 0.7 μmol ATP hydrolyzed/min/mg of proteins.
The molecules of the invention which extract BmrA in the previous example were tested at different sub-solubilizing and solubilizing concentrations, to evaluate their impact on the native and functional state of the protein. The latter is monitored by the hydrolysis of ATP which is carried out by the protein during the transport cycle, coupled with translocation of the solute. As reported previously (Matar-Merheb, R. et al. ([11])), the ATPase activity of BmrA is a highly sensitive marker of the state of the protein, the latter being particularly sensitive to the detergents used during the extraction step, where said detergents replace the lipids on contact with the membrane protein.
Procedure. BmrA produced and enriched in the plasma membrane of E. coli C41 DE3 is prepared as described previously (Matar-Merheb, R. et al. ([11])). The membranes are diluted at 2 g/l in a 20 mM Tris-HCl buffer, pH 8.0, 100 mM NaCl, 15% glycerol, with protease inhibitors (Roche) added thereto at an amount of one tablet/100 ml. The mixture (T) is incubated for 2 h at 4° C. and the ATPase activity is measured using the coupled-enzyme system, separating off the vanadate-insensitive activity from the total activity, Centeno, F. et al. Expression of the sarcoplasmic reticulum Ca^2+-ATPase in yeast. FEBS Lett 354, 117-122 (1994) ([25])). The solutions are subsequently centrifuged for 1 h at 4° C. at 100 000×g in order to separate the extracted fraction (supernatant, S) from that which is not extracted (pellet). The supernatants are deposited on 10% SDS-PAGE and stained with Coomassie blue after migration (FIG. 8). DDM, LMNG (Chae, P. S. et al. ([6])), TritonX100 and FA3 (Lee, S. C. et al. (2013) ([9])) are tested as reference detergents. The DDM and LMNG originate from Anatrace, the Triton X100 originates from Sigma-Aldrich and the FA3 from Avanti-Polars.

T1 sequence (O06967 whole entry): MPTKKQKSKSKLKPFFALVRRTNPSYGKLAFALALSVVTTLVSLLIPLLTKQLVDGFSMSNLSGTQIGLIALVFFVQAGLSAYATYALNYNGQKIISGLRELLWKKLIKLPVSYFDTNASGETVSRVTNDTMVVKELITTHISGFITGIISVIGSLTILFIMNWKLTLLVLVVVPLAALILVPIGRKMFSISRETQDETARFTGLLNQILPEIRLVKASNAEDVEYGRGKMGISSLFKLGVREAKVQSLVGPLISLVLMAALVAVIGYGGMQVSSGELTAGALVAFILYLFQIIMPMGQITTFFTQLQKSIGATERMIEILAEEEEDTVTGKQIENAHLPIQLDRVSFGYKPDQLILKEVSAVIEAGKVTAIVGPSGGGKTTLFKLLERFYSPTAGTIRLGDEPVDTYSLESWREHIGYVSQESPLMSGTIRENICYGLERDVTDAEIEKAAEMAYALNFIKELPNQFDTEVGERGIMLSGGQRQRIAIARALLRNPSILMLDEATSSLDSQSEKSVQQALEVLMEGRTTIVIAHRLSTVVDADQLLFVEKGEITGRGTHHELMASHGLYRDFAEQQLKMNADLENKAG

Structure (SMILES)	change of the ATPase activity of BmrA on extraction
CCCCCCCCCCCC(=O)N[C@@H](COCc1cn(CCO[C@@H]2OC(CO)[C@@H](O)C(O)C2O)nn1)C(=O)N[C@H](CCC(=O)O)C(=O)O (stereo partly drawn) [Compound 3.7b]	1.5 ×
CCCCCCCCCCCCCC(=O)N[C@@H](COCc1cn(CCO[C@@H]2OC(CO)[C@@H](O)C(O)C2O)nn1)C(=O)N[C@H](CCC(=O)O)C(=O)O (stereo partly drawn) [Compound 3.7c]	1.5 ×
CCCCCCCCCCCCCC(=O)N[C@@H](COCc1cn(CCO[C@@H]2OC(CO)[C@@H](O[C@H]3OC(CO)[C@@H](O)C(O)C3O)C(O)C2O)nn1)C(=O)N[C@H](CCC(=O)O)C(=O)O (stereo partly drawn) [Compound 3.7e]	2 ×
CCCCCCCCCCCCCC(=O)N[C@@H](COCc1cn(CCOCCOCCOCCOCCOCCOC)nn1)C(=O)N[C@H](CCC(=O)O)C(=O)O [Compound 3.7g]	1.5 ×
CCCCCCCCCCCCC(CCCCCCCCCCCC)C(=O)N[C@@H](COCc1cn(CCO[C@@H]2OC(CO)[C@@H](O)C(O)C2O)nn1)C(=O)N[C@H](CCC(=O)O)C(=O)O (stereo partly drawn) [Compound 3.7j]	maintaining
CCCCCCCCCCCCCC(=O)N[C@@H](COCc1cn(CCO[C@@H]2OC(CO)[C@@H](O)C(O)C2O)nn1)C(=O)N[C@@H](CCC(=O)O)C(=O)NCC(=O)O (stereo partly drawn) [Compound 3.7l]	maintaining
